How the values were obtained:
[1] = system: HT-29; test: Anticancer activity against human HT-29 cells assessed as total cell growth inhibition incubated for 48 hrs by SRB assay; assay type: functional
[2] = system: Hs-578T; test: Anticancer activity against human Hs-578T cells assessed as total cell growth inhibition incubated for 48 hrs by SRB assay; assay type: functional
[3] = system: UO-31; test: Anticancer activity against human UO-31 cells assessed as total cell growth inhibition incubated for 48 hrs by SRB assay; assay type: functional
[4] = system: A498; test: Anticancer activity against human A498 cells assessed as total cell growth inhibition incubated for 48 hrs by SRB assay; assay type: functional
[5] = system: HT-29; test: Anticancer activity against human HT-29 cells assessed as cell growth inhibition incubated for 48 hrs by SRB assay; assay type: functional
[6] = system: Hs-578T; test: Anticancer activity against human Hs-578T cells assessed as cell growth inhibition incubated for 48 hrs by SRB assay; assay type: functional
[7] = system: RPMI-8226; test: Anticancer activity against human RPMI-8226 cells assessed as total cell growth inhibition incubated for 48 hrs by SRB assay; assay type: functional
[8] = system: SF-295; test: Anticancer activity against human SF-295 cells assessed as cell growth inhibition incubated for 48 hrs by SRB assay; assay type: functional
[9] = system: SK-MEL-2; test: Anticancer activity against human SK-MEL-2 cells assessed as cell growth inhibition incubated for 48 hrs by SRB assay; assay type: functional
[10] = system: DU-145; test: Anticancer activity against human DU-145 cells assessed as total cell growth inhibition incubated for 48 hrs by SRB assay; assay type: functional
[11] = system: SN12C; test: Anticancer activity against human SN12C cells assessed as total cell growth inhibition incubated for 48 hrs by SRB assay; assay type: functional
[12] = target: Epidermal growth factor receptor (Homo sapiens) (UniProt P00533); test: Inhibition of EGFR (unknown origin) at 1 uM in presence of ATP by hotspot kinase assay
Epidermal growth factor receptor (Homo sapiens), sequence (P00533 whole entry): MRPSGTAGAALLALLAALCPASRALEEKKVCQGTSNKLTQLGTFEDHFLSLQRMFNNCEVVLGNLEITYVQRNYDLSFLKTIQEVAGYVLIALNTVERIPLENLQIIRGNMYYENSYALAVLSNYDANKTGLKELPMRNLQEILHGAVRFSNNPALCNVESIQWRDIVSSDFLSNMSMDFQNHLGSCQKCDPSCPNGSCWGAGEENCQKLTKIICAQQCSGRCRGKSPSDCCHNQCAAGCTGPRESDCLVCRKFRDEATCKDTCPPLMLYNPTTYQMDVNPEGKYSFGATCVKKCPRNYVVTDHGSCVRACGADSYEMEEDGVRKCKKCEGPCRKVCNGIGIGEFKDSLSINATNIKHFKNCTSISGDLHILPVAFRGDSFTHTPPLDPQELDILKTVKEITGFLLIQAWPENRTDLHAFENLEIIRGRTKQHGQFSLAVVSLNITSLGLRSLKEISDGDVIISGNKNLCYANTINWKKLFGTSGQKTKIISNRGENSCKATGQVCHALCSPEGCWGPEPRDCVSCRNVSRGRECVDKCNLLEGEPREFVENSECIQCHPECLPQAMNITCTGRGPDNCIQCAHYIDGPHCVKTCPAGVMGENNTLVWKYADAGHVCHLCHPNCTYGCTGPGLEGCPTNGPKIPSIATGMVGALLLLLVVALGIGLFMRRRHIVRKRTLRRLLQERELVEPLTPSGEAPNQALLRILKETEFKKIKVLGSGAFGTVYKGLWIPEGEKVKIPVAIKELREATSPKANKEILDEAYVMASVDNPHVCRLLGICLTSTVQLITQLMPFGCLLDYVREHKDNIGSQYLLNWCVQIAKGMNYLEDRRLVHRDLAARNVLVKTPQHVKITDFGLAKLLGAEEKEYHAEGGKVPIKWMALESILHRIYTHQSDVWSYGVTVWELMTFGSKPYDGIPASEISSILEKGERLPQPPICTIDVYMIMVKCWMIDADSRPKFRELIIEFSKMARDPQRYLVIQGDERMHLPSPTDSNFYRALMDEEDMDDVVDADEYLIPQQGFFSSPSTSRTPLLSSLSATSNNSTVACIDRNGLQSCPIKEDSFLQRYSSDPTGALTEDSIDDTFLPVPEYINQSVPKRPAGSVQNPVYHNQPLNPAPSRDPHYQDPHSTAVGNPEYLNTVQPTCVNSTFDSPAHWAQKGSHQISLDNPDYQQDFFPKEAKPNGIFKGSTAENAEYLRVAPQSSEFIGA

[13] = system: HOP-92; test: Anticancer activity against human HOP-92 cells assessed as cell growth inhibition incubated for 48 hrs by SRB assay; assay type: functional
[14] = system: HL-60; test: Anticancer activity against human HL-60 cells assessed as cell growth inhibition incubated for 48 hrs by SRB assay; assay type: functional
[15] = Cytotoxicity against human WI-38 cells assessed as cell growth inhibition incubated for 48 hrs by SRB assay; assay type: toxicity, cell-based
[16] = target: Vascular endothelial growth factor receptor 2 (Homo sapiens) (UniProt P35968); test: Inhibition of KDR (unknown origin) at 1 uM in presence of ATP by hotspot kinase assay
Vascular endothelial growth factor receptor 2 (Homo sapiens), sequence (P35968 whole entry): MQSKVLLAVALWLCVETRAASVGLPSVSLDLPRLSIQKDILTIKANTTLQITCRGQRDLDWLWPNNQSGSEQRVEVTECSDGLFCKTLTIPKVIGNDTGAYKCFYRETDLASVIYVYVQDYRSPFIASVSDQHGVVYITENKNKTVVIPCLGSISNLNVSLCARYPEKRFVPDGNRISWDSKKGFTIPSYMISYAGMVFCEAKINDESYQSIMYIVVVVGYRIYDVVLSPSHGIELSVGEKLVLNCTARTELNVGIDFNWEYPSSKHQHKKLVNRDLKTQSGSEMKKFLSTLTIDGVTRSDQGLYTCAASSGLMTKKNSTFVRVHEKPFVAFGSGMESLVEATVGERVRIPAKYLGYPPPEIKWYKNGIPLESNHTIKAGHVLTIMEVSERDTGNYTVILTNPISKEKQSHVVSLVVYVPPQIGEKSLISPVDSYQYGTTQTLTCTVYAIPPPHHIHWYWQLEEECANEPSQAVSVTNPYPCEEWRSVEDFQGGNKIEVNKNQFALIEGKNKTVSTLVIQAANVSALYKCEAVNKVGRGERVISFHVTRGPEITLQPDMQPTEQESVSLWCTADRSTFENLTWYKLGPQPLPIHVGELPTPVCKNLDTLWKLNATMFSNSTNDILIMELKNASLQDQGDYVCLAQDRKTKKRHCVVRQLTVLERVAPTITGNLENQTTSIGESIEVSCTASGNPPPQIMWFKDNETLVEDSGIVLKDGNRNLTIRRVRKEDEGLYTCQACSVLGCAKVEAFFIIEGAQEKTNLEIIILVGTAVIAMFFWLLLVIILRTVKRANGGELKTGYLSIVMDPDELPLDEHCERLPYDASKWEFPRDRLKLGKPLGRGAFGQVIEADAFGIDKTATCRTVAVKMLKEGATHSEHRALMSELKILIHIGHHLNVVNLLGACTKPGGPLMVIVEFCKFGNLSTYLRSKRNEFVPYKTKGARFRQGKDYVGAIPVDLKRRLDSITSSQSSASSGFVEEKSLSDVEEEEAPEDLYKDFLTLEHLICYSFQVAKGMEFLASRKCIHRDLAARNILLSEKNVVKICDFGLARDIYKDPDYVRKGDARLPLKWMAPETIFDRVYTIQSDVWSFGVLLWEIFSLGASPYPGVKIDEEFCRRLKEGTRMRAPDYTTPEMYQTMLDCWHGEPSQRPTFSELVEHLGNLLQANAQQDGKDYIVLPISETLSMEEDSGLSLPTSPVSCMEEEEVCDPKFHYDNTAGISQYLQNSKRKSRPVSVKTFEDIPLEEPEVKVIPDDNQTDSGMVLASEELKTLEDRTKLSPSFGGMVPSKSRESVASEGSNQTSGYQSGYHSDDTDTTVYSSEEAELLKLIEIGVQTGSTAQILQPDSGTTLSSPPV

[17] = system: A498; test: Anticancer activity against human A498 cells assessed as cell growth inhibition incubated for 48 hrs by SRB assay; assay type: functional
[18] = system: OVCAR-4; test: Anticancer activity against human OVCAR-4 cells assessed as total cell growth inhibition incubated for 48 hrs by SRB assay; assay type: functional
[19] = system: MDA-MB-435; test: Anticancer activity against human MDA-MB-435 cells assessed as total cell growth inhibition incubated for 48 hrs by SRB assay; assay type: functional
[20] = system: T47D; test: Anticancer activity against human T47D cells assessed as total cell growth inhibition incubated for 48 hrs by SRB assay; assay type: functional
[21] = system: Serine/threonine-protein kinase B-raf (Homo sapiens), P15056 [V600E]; test: Inhibition of B-RAF V600E mutant (unknown origin) at 1 uM in presence of ATP by hotspot kinase assay
Serine/threonine-protein kinase B-raf (Homo sapiens), P15056 [V600E], sequence (P15056 whole entry V600E): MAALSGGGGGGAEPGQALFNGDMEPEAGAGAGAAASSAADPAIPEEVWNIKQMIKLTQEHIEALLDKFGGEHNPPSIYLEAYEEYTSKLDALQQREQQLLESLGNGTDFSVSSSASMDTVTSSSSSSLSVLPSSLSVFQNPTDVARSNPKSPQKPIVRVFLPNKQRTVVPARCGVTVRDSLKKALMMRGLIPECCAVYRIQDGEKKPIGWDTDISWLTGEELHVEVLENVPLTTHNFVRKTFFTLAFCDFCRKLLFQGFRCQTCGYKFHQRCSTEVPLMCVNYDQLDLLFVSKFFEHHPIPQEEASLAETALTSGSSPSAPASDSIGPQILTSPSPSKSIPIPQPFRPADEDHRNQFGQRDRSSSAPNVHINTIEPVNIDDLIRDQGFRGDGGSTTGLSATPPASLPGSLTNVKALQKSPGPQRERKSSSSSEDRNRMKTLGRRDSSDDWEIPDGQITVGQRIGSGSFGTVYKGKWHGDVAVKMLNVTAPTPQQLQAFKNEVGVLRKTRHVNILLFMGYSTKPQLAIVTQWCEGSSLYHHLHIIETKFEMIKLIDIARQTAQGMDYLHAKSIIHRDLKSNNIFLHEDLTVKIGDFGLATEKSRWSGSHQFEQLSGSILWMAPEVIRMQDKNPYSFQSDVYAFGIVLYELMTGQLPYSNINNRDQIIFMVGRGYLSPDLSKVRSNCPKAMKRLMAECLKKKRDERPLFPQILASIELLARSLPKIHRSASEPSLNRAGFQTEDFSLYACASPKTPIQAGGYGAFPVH

[22] = target: Dual specificity mitogen-activated protein kinase kinase 1 (Homo sapiens) (UniProt Q02750); test: Inhibition of MEK1 (unknown origin) at 1 uM in presence of ATP by hotspot kinase assay
Dual specificity mitogen-activated protein kinase kinase 1 (Homo sapiens), sequence (Q02750 whole entry): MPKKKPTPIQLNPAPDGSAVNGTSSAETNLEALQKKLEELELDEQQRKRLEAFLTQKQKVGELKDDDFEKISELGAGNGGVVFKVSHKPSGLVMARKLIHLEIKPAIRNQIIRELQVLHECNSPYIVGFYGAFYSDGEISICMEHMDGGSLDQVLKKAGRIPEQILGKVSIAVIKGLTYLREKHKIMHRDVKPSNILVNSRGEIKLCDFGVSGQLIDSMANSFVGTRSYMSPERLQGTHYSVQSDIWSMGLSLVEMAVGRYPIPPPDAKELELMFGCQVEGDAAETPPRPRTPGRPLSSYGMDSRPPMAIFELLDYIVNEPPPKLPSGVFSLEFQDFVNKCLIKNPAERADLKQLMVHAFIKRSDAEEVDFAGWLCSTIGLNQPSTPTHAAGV

[23] = system: MCF7; test: Anticancer activity against human MCF7 cells assessed as total cell growth inhibition incubated for 48 hrs by SRB assay; assay type: functional
[24] = system: HOP-62; test: Anticancer activity against human HOP-62 cells assessed as total cell growth inhibition incubated for 48 hrs by SRB assay; assay type: functional
[25] = system: MOLT-4; test: Anticancer activity against human MOLT-4 cells assessed as cell growth inhibition incubated for 48 hrs by SRB assay; assay type: functional
[26] = species: Homo sapiens; test: Inhibition of ABL (unknown origin) at 1 uM in presence of ATP by hotspot kinase assay
[27] = system: IGROV-1; test: Anticancer activity against human IGROV-1 cells assessed as cell growth inhibition incubated for 48 hrs by SRB assay; assay type: functional
[28] = system: M14; test: Anticancer activity against human M14 cells assessed as total cell growth inhibition incubated for 48 hrs by SRB assay; assay type: functional
[29] = system: CAKI-1; test: Anticancer activity against human CAKI-1 cells assessed as cell growth inhibition incubated for 48 hrs by SRB assay; assay type: functional
[30] = system: SK-MEL-28; test: Anticancer activity against human SK-MEL-28 cells assessed as cell growth inhibition incubated for 48 hrs by SRB assay; assay type: functional
[31] = system: A549; test: Anticancer activity against human A549 cells assessed as cell growth inhibition incubated for 48 hrs by SRB assay; assay type: functional
[32] = system: NCI-H23; test: Anticancer activity against human NCI-H23 cells assessed as total cell growth inhibition incubated for 48 hrs by SRB assay; assay type: functional
[33] = system: SK-MEL-2; test: Anticancer activity against human SK-MEL-2 cells assessed as total cell growth inhibition incubated for 48 hrs by SRB assay; assay type: functional
[34] = system: NCI-H460; test: Anticancer activity against human NCI-H460 cells assessed as total cell growth inhibition incubated for 48 hrs by SRB assay; assay type: functional
[35] = system: NCI-H522; test: Anticancer activity against human NCI-H522 cells assessed as cell growth inhibition incubated for 48 hrs by SRB assay; assay type: functional
[36] = system: SNB-19; test: Anticancer activity against human SNB-19 cells assessed as cell growth inhibition incubated for 48 hrs by SRB assay; assay type: functional
[37] = system: SNB-75; test: Anticancer activity against human SNB-75 cells assessed as total cell growth inhibition incubated for 48 hrs by SRB assay; assay type: functional
[38] = system: NCI-H23; test: Anticancer activity against human NCI-H23 cells assessed as cell growth inhibition incubated for 48 hrs by SRB assay; assay type: functional
[39] = system: NCI/ADR-RES; test: Anticancer activity against human NCI/ADR-RES cells assessed as total cell growth inhibition incubated for 48 hrs by SRB assay; assay type: functional
[40] = system: SK-MEL-5; test: Anticancer activity against human SK-MEL-5 cells assessed as cell growth inhibition incubated for 48 hrs by SRB assay; assay type: functional
[41] = system: MDA-MB-468; test: Anticancer activity against human MDA-MB-468 cells assessed as total cell growth inhibition incubated for 48 hrs by SRB assay; assay type: functional
[42] = system: OVCAR-4; test: Anticancer activity against human OVCAR-4 cells assessed as cell growth inhibition incubated for 48 hrs by SRB assay; assay type: functional
[43] = system: OVCAR-3; test: Anticancer activity against human OVCAR-3 cells assessed as cell growth inhibition incubated for 48 hrs by SRB assay; assay type: functional
[44] = system: SF-539; test: Anticancer activity against human SF-539 cells assessed as total cell growth inhibition incubated for 48 hrs by SRB assay; assay type: functional
[45] = target: Dual specificity mitogen-activated protein kinase kinase 2 (Homo sapiens) (UniProt P36507); test: Inhibition of MEK2 (unknown origin) at 1 uM in presence of ATP by hotspot kinase assay
[46] = target: Platelet-derived growth factor receptor alpha (Homo sapiens) (UniProt P16234); test: Inhibition of PDGFRalpha (unknown origin) at 1 uM in presence of ATP by hotspot kinase assay
Platelet-derived growth factor receptor alpha (Homo sapiens), sequence (P16234 whole entry): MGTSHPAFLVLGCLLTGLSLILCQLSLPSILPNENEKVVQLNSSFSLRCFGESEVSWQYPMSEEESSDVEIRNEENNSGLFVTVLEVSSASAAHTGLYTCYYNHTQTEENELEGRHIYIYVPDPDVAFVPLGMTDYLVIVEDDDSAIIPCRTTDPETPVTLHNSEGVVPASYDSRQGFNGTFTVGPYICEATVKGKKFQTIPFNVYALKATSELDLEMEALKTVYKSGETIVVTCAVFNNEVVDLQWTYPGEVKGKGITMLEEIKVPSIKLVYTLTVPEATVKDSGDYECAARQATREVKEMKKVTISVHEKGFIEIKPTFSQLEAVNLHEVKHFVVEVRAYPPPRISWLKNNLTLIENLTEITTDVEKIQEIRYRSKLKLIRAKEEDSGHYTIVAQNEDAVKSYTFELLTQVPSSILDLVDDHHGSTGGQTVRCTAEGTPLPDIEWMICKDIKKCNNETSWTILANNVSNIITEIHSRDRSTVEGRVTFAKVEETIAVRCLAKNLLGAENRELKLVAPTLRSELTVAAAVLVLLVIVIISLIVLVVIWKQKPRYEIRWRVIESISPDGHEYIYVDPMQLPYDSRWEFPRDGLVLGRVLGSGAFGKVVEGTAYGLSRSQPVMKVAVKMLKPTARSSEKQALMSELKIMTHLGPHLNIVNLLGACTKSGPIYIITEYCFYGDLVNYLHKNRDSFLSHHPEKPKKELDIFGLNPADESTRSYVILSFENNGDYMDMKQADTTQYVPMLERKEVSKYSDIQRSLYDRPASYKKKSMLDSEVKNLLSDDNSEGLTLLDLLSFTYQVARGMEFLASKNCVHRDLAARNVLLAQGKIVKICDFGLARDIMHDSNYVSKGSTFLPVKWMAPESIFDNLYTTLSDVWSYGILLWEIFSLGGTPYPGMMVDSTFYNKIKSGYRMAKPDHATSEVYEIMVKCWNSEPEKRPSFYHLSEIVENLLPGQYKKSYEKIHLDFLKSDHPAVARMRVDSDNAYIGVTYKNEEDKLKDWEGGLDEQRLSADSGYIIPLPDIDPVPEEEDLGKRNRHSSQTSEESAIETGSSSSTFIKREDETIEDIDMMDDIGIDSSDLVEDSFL

[47] = system: RXF 393; test: Anticancer activity against human RXF 393 cells assessed as total cell growth inhibition incubated for 48 hrs by SRB assay; assay type: functional

COc1cc2cc(Oc3ccc(NC(=O)Nc4ccc(Cl)c(C(F)(F)F)c4)cc3)c(C)nc2cc1OCCN1CCOCC1
TGI [1]: 11.2 µM | TGI [2]: 5.11 µM | TGI [3]: 3.34 µM | TGI [4]: 9.62 µM | GI50 [5]: 11.2 µM | GI50 [6]: 1.83 µM | TGI [7]: 4.34 µM | GI50 [8]: 1.19 µM | GI50 [9]: 1.65 µM | TGI [10]: 13.8 µM | TGI [11]: 56.2 µM | inhibition [12]: -2.4% | GI50 [13]: 1.66 µM | GI50 [14]: 2.32 µM | GI50 at 48 h [15]: > 20 µM | inhibition [16]: 1.56% | GI50 [17]: 2.45 µM | TGI [18]: 3.41 µM | TGI [19]: 4.1 µM | TGI [20]: 5.2 µM | inhibition [21]: 28.5% | inhibition [22]: 21.7% | TGI [23]: 3.33 µM | TGI [24]: 4.55 µM | GI50 [25]: 1.48 µM | inhibition [26]: -5.6% | GI50 [27]: 2.43 µM | TGI [28]: 3.45 µM | GI50 [29]: 1.8 µM | GI50 [30]: 1.55 µM | GI50 [31]: 2.13 µM | TGI [32]: 3.89 µM | TGI [33]: 4.06 µM | TGI [34]: 3.62 µM | GI50 [35]: 1.43 µM | GI50 [36]: 3.23 µM | TGI [37]: 7.05 µM | GI50 [38]: 1.12 µM | TGI [39]: 12.6 µM | GI50 [40]: 1.15 µM | TGI [41]: 2.06 µM | GI50 [42]: 0.58 µM | GI50 [43]: 1.52 µM | TGI [44]: 3.26 µM | inhibition [45]: 17.3% | inhibition [46]: 23.2% | TGI [47]: 3.99 µM

Source: ChEMBL document CHEMBL5113398, “Design and synthesis of new quinoline derivatives as selective C-RAF kinase inhibitors with potent anticancer activity” (Eur J Med Chem, 2022)
